Results reported in patent US11065253B2, “Arylquinazolines” (Merck Patent GmbH, priority 2013, dated 2021).
Where two headings read alike, the source gives them in different places.

Assays:
[1] = system: phospho-serine 2056 DNA-PK in HCT116 cells; assay: DNA-PK phosphorylation at serine 2056 (cellular), ELISA in bleomycin-treated HCT116 cells; format: cell-based; conditions: bleomycin-treated HCT116 cells, read-out: IC50 pDNA-PK
Summary of the method: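 HCT116 cells grown overnight were co-treated with 10 μM bleomycin and test compound for 6 h at 37 °C. Phospho-DNA-PK was quantified by chemiluminescent ELISA and normalised to total DNA-PKcs signal, with DMSO control as blank.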

Kv11.1 (hERG) channel = Kv11.1 (hERG) channel (Homo sapiens (Human), UniProt Q12809); assay: Kv11.1 ion channel binding assay (Predictor hERG fluorescence polarisation); conditions: class symbol marked with asterisk (*)
Procedure: D) Kv11.1 Ion Channel Binding Assay
Kv11.1 (hERG=human ether a go-go related […]) is a cardiac K^+ channel which should if possible not interact with the test substances. This interaction is determined quantitatively with the aid of the Predictor™ hERG Fluorescence Polarizations (FP) Assays from Life Technologies. In the case of this assay principle, cardiomyocyte cell membranes having a certain proportion of Kv11.1 channels are isolated. A dye-labelled Kv11.1 binding partner gives a high fluorescence polarisation signal by interaction with the Kv11.1. In the case of displacement of the dye, a reduction in the fluorescence polarisation signal occurs.
The assay is carried out automatically as follows: 15 nl of the test substances (highest concentration: 10 mM, 10 concentrations: dilution factors 1:3.16, DMSO) are transferred into an empty microtitre plates having 384 wells by means of an acoustic pipetter. 3 μl of the isolated membranes are subsequently added. Membranes and test substances are incubated at 22° C. for 15 min (+/−5 min). In the next step, the dye-labelled binding partner is added, followed by incubation at 22° C. After incubation for two hours, the measurement of the fluorescence polarisation is carried out on an Envision multimode Reader. Measured raw data are standardised with the aid of Genedata Assay Analyzer. The IC50 and % effect values are calculated in Genedata Condoseo.

[2] = Homo sapiens, HCT-116, phospho-serine 2056 DNA-PK

Chain of Kv11.1 (hERG) channel (Q12809 whole entry): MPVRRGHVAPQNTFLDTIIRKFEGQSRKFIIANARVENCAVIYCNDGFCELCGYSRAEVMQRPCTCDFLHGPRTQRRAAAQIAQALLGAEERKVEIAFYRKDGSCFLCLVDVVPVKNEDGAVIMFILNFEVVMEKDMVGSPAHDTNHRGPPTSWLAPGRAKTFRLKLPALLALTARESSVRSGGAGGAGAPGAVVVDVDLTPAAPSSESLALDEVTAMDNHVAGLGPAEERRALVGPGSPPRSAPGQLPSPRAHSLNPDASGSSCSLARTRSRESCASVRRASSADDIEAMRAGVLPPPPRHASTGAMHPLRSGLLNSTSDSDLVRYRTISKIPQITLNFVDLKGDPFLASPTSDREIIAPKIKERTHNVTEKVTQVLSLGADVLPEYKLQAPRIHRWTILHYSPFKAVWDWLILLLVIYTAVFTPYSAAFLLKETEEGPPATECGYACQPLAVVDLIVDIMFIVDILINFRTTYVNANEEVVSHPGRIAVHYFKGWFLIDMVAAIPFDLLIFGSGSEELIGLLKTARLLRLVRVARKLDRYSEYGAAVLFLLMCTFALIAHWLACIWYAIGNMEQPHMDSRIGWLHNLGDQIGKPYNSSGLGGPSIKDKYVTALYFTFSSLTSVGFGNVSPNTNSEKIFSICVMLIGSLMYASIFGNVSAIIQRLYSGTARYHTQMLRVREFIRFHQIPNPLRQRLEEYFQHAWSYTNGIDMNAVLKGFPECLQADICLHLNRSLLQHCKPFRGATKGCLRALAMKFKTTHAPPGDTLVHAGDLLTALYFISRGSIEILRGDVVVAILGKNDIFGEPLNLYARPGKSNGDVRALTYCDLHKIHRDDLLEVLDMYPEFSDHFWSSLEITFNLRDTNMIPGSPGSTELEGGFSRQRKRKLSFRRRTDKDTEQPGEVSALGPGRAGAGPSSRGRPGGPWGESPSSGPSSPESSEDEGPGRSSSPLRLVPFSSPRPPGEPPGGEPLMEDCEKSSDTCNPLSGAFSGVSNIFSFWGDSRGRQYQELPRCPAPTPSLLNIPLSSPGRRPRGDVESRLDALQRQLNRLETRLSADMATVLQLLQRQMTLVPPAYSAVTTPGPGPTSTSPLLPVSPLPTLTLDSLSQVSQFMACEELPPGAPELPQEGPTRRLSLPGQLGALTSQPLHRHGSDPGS

Row | IC50 ([1]; phospho-serine 2056 DNA-PK) | IC50 [1, 2] | SMILES | Ki [Kv1.11 hERG] (Kv11.1 (hERG) channel)
1 | < 0.5 µM |  | COc1nccnc1C(O)c1cc(-c2ncnc3cc(N4CCOCC4)cc(F)c23)c(F)cc1Cl (stereo not drawn) [Example 250, [2-Chloro-4-fluoro-5-(5-fluoro-7-morpholin-4-yl-quinazolin-4-yl)-phenyl]-(3-methoxy-pyrazin-2-yl)-methanol] | A*
2 | < 0.5 µM |  | [2H]C1([2H])OC([2H])([2H])C([2H])([2H])N(c2ccc3c(-c4cc(C(O)c5ccc(OC)nn5)c(Cl)cc4F)ncnc3c2)C1([2H])[2H] (stereo not drawn) [Example 262, [2-Chloro-4-fluoro-5-[7-(2,2,3,3,5,5,6,6-octadeuterio-morpholin-4-yl)quinazolin-4-yl]phenyl]-(6-methoxypyridazin-3-yl)methanol] | A*
3 | < 0.5 µM |  | COc1nccnc1C(O)c1ccc(F)c(-c2ncnc3cc(N4CCOCC4)cc(F)c23)c1 (stereo not drawn) [Example 267, [4-Fluoro-3-(5-fluoro-7-morpholin-4-yl-quinazolin-4-yl)-phenyl]-(3-methoxy-pyrazin-2-yl)-methanol] | A*
4 | < 0.5 µM |  | COc1nccnc1C(O)c1cc(-c2ncnc3cc(N4CCOCC4)cc(F)c23)c(F)cc1Cl (stereo not drawn) [Example 266, [2-Chloro-4-fluoro-5-(5-fluoro-7-morpholin-4-yl-quinazolin-4-yl)-phenyl]-(3-methoxy-pyrazin-2-yl)-methanol] | A*
5 |  | 5 to 10 µM | CN1N=C(C(O)c2cc(-c3ncnc4cc(N5CCOCC5)ccc34)c(F)cc2Cl)CCC1=O (stereo not drawn) [Example 288, 6-{[2-Chloro-4-fluoro-5-(7-morpholin-4-yl-quinazolin-4-yl)-phenyl]hydroxy-methyl}-2-methyl-4,5-dihydro-2H-pyridazin-3-one] | A*
6 |  | 5 to 10 µM | Cc1nccnc1C(C(N)=O)c1ccc(F)c(-c2ncnc3cc(N4CCOCC4)sc23)c1 (stereo not drawn) [Example 270, 2-[4-Fluoro-3-(6-morpholin-4-yl-thieno[3,2-d}-pyrimidin-4-yl)-phenyl]-2-(3-methyl-pyrazin-2-yl)-acetamide] | A*
7 |  | < 0.5 µM | COc1nccnc1C(O)c1cc(-c2ncnc3cc(N4CCOCC4)cc(F)c23)c(F)cc1Cl (stereo not drawn) [Example 249, [2-Chloro-4-fluoro-5-(5-fluoro-7-morpholin-4-yl-quinazolin-4-yl)-phenyl]-(3-methoxy-pyrazin-2-yl)-methanol] | A*
8 | < 0.5 µM |  | COc1ccc(C(O)c2cc(-c3ncnc4cc(N5CCOCC5)cc(F)c34)c(F)cc2Cl)nn1 (stereo not drawn) [Example 278, [2-chloro-4-fluoro-5-(5-fluoro-7-morpholin-4-ylquinazolin-4-yl)phenyl]-(6-methoxypyridazin-3-yl)methanol] | A*
9 |  | 10 to 30 µM | CNC(=O)C(c1cc(-c2ncnc3cc(N4CCOCC4)ccc23)c(F)cc1Cl)c1nccnc1C (stereo not drawn) [Example 254, 2-[2-Chloro-4-fluoro-5-(7-morpholin-4-yl-quinazolin-4-yl)-phenyl]-N-methyl-2-(3-methyl-pyrazin-2-yl)acetamide] | A*
10 | < 0.5 µM |  | [2H]C1([2H])OC([2H])([2H])C([2H])([2H])N(c2ccc3c(-c4cc(C(O)c5nccnc5C)ccc4F)ncnc3c2)C1([2H])[2H] (stereo not drawn) [Example 259, [4-Fluoro-3-[7-(2,2,3,3,5,5,6,6-octadeuterio-morpholin-4-yl)quinazolin-4-yl]phenyl]-(3-methyl-pyrazin-2-yl)-methanol] | A*
11 |  | 0.5 to 5 µM | COc1ccc(C(C(N)=O)c2cc(-c3ncnc4cc(N5CCOCC5)sc34)c(F)cc2Cl)nn1 (stereo not drawn) [Example 272, 2-[2-Chloro-4-fluoro-5-(6-morpholin-4-yl-thieno[3,2-d}-pyrimidin-4-yl)-phenyl]-2-(6-methoxy-pyridazin-3-yl)acetamide] | A*
12 |  | 5 to 10 µM | COc1nnc(Cl)cc1C(O)c1ccc(F)c(-c2ncnc3cc(N4CCOCC4)ccc23)c1 (stereo not drawn) [Example 286, (6-Chloro-3-methoxy-pyridazin-4-yl)-[4-fluoro-3-(7-morpholin-4-yl-quinazolin-4-yl)-phenyl]methanol (Ena 1)] | A*
13 |  | < 0.5 µM | Cc1nccnc1C(O)c1ccc(F)c(-c2ncnc3cc(N4CCOCC4)cc(F)c23)c1 (stereo not drawn) [Example 268, [4-Fluoro-3-(5-fluoro-7-morpholin-4-yl-quinazolin-4-yl)-phenyl]-(3-methyl-pyrazin-2-yl)-methanol] | A*
14 |  | 10 to 30 µM | NC(=O)C(c1ccc(F)c(-c2ncnc3cc(N4CCOCC4)ccc23)c1)c1nccn2ncnc12 (stereo not drawn) [Example 280, 2-[4-Fluoro-3-(7-morpholin-4-yl-quinazolin-4-yl)-phenyl]-2-[1,2,4]-triazolo[1,5-a]-pyrazin-8-yl-acetamide] | A*
15 | < 0.5 µM |  | [2H]C1([2H])OC([2H])([2H])C([2H])([2H])N(c2ccc3c(-c4cc(C(O)c5nccnc5OC)c(Cl)cc4F)ncnc3c2)C1([2H])[2H] (stereo not drawn) [Example 258, [2-Chloro-4-fluoro-5-[7-(2,2,3,3,5,5,6,6-octadeuterio-morpholin-4-yl)-quinazolin-4-yl- ]phenyl]-(3-methoxy-pyrazin-2-yl)-methanol] | A*
16 | < 0.5 µM |  | Cc1nccnc1C(O)c1ccc(F)c(-c2ncnc3cc(N4CCOCC4)sc23)c1 (stereo not drawn) [Example 265, [4-Fluoro-3-(6-morpholin-4-yl-thieno[3,2-d}-pyrimidin-4-yl)-phenyl]-(3-methyl-pyrazin-2-yl)-methanol] | A*
17 |  | < 0.5 µM | Cc1nccnc1C(O)c1ccc(F)c(-c2ncnc3cc(N4CCOCC4)sc23)c1 (stereo not drawn) [Example 245, [4-Fluoro-3-(6-morpholin-4-yl-thieno[3,2-d}-pyrimidin-4-yl)-phenyl]-(3-methyl-pyrazin-2-yl)-methanol] | A*
18 |  | < 0.5 µM | Cc1nccnc1C(O)c1cc(-c2ncnc3cc(N4CCOCC4)sc23)c(F)cc1Cl (stereo not drawn) [Example 264, [2-Chloro-4-fluoro-5-(6-morpholin-4-yl-thieno[3,2-d}-pyrimidin-4-yl)-phenyl]-(3-methyl-pyrazin-2-yl)-methanol] | A*

Row | SMILES | IC50 ([1]; phospho-serine 2056 DNA-PK) | IC50 [1, 2] | Ki [Kv1.11 hERG] (Kv11.1 (hERG) channel)
19 | CNC(=O)C(c1ccc(F)c(-c2ncnc3cc(N4CCOCC4)ccc23)c1)c1ncccc1Cl (stereo not drawn) [Example 230, 2-(3-Chloro-pyridin-2-yl)-2-[4-fluoro-3-(7-morpholin-4-yl-quinazolin-4-yl)-phenyl]-N-methyl-acetamide] | 5 to 10 µM |  | B*
20 | CNC(=O)C(c1ccc2nccn2n1)c1cc(-c2ncnc3cc(N4CCOCC4)ccc23)c(F)cc1Cl (stereo not drawn) [Example 236, 2-[2-Chloro-4-fluoro-5-(7-morpholin-4-yl-quinazolin-4-yl)-phenyl]-2-imidazo-[1,2-b]pyridazin-6-yl-N-methylacetamide] |  | 5 to 10 µM | A*
21 | COc1ccc(C(O)c2ccc(F)c(-c3ncnc4cc(N5CCOCC5)cc(F)c34)c2)nn1 (stereo not drawn) [Example 256, [4-Fluoro-3-(5-fluoro-7-morpholin-4-yl-quinazolin-4-yl)-phenyl]-(6-methoxy-pyridazin-3-yl)-methanol] | < 0.5 µM |  | A*
